Tests used:
Type in all cases: cell-based
184B5 = assay: in vitro
Experimental: (§1) From the stock concentration, 8 serial dilutions (1:5) were made with DMSO.
(§2) Day −1: Plate cells in 100 μl volume in 96 well plate. • Note: Cell number seeded adjusted for growth characteristics, so that at time of assay for proliferation following three-day drug treatment, the control wells should still be in log-growth phase (sub-confluent). Day 0: Drug added to plate for treatment. • A time 0 plate was processed for the proliferation assay to establish a baseline reading at time when drug was added.
(§3) LBNL are following the protocols set up by the NCI/NIH DTP Human Tumor Cell Line Screen Process (http://dtp.nci.nih.gov/branches/btb/ivclsp.html) and summarized below.
(§4) [(Ti−Tz)/(C−Tz)]×100 for concentrations for which Ti>/=Tz
(§5) [(Ti−Tz)/(C−Tz)]×100=50, • which is the drug concentration resulting in a 50% reduction in the net growth in control cells during the drug incubation. TGI: Total growth inhibition is calculated from
(§6) Ti=Tz. • The drug concentration resulting in total growth inhibition (down to the ‘time 0’ baseline). LC50: Net loss of cell growth at 50% is calculated from
(§7) [(Ti−Tz)/Tz]×100=−50. • The concentration of drug resulting in a 50% reduction in the cell number at the end of the drug treatment as compared to that at the beginning (time 0) indicating a net loss of cells following treatment.
(§8) Values are calculated for each of these three parameters if the level of activity is reached; however, if the effect is not reached or is exceeded, the value for that parameter is expressed as greater or less than the maximum or minimum concentration tested.

600MPE = assay: cells
Experimental: as §1, §2, §3, §4, §5, §6, §7, §8

AU565 = assay: cells
Experimental: as §1, §2, §3, §4, §5, §6, §7, §8

BT20 = assay: cells
Experimental: as §1, §2, §3, §4, §5, §6, §7, §8

BT474 = assay: cells
Experimental: as §1, §2, §3, §4, §5, §6, §7, §8

BT549 = assay: cells
Experimental: as §1, §2, §3, §4, §5, §6, §7, §8

CAMA1 = assay: cells
Experimental: as §1, §2, §3, §4, §5, §6, §7, §8

HCC1395 = assay: cells
Experimental: as §1, §2, §3, §4, §5, §6, §7, §8

HCC1937 = assay: cells
Experimental: as §1, §2, §3, §4, §5, §6, §7, §8

HCC3153 = assay: cells
Experimental: as §1, §2, §3, §4, §5, §6, §7, §8

HCC70 = assay: cells
Experimental: as §1, §2, §3, §4, §5, §6, §7, §8

Hs578T = assay: cells
Experimental: as §1, §2, §3, §4, §5, §6, §7, §8

MCF10A = assay: cells
Experimental: as §1, §2, §3, §4, §5, §6, §7, §8

MCF10F = assay: cells
Experimental: as §1, §2, §3, §4, §5, §6, §7, §8

MDAMB231 = assay: cells
Experimental: as §1, §2, §3, §4, §5, §6, §7, §8

MDAMB361 = assay: cells
Experimental: as §1, §2, §3, §4, §5, §6, §7, §8

MDAMB436L = assay: cells
Experimental: as §1, §2, §3, §4, §5, §6, §7, §8

SUM1315MO2 = assay: cells
Experimental: as §1, §2, §3, §4, §5, §6, §7, §8

SUM149PT = assay: cells
Experimental: as §1, §2, §3, §4, §5, §6, §7, §8

SUM159PT = assay: cells
Experimental: as §1, §2, §3, §4, §5, §6, §7, §8

SUM225CWN = assay: cells
Experimental: as §1, §2, §3, §4, §5, §6, §7, §8

SUM229PE = assay: cells
Experimental: as §1, §2, §3, §4, §5, §6, §7, §8

T47D = assay: cells
Experimental: as §1, §2, §3, §4, §5, §6, §7, §8

[1] = Homo sapiens, 50% net loss of cells vs time 0, read-out: LC50 (the source's name)
[2] = Homo sapiens, 72 h, three-day drug treatment, read-out: gIC50

COc1ncc(-c2ccc3nccc(-c4ccnnc4)c3c2)cc1NS(=O)(=O)c1ccc(F)cc1F [Compound B, 2,4-difluoro-N-{2-(methyloxy)-5-[4-(4-pyridazinyl)-6-quinolinyl]-3-pyridinyl}benzenesulfonamide]
TGI (184B5; 184B5, total growth inhibition): 46.3 nM | IC50 (184B5; Homo sapiens, 72 h, 184B5, three-day drug treatment, read-out: gIC50): 5.6 nM | CC50 (600MPE; [1]): 875 nM | IC50 (600MPE; [2]): 6.8 nM | TGI (600MPE; total growth inhibition): 33.5 nM | TGI (AU565; AU565, total growth inhibition): 6700.0 nM | IC50 (AU565; Homo sapiens, 72 h, AU565, three-day drug treatment, read-out: gIC50): 7.2 nM | CC50 (AU565; Homo sapiens, AU565, 50% net loss of cells vs time 0, read-out: LC50 (the source's name)): > 33000 nM | TGI (BT20; BT20, total growth inhibition): 95.5 nM | IC50 (BT20; Homo sapiens, BT-20, 72 h, BT20, three-day drug treatment, read-out: gIC50): 14.8 nM | CC50 (BT20; Homo sapiens, BT-20, BT20, 50% net loss of cells vs time 0, read-out: LC50 (the source's name)): 468 nM | TGI (BT474; BT474, total growth inhibition): 20.1 nM | IC50 (BT474; Homo sapiens, BT-474, 72 h, BT474, three-day drug treatment, read-out: gIC50): 4.8 nM | CC50 (BT474; Homo sapiens, BT-474, BT474, 50% net loss of cells vs time 0, read-out: LC50 (the source's name)): 119 nM | TGI (BT549; BT549, total growth inhibition): >33000.0 nM | IC50 (BT549; Homo sapiens, BT-549, 72 h, BT549, three-day drug treatment, read-out: gIC50): 42.7 nM | CC50 (BT549; Homo sapiens, BT-549, BT549, 50% net loss of cells vs time 0, read-out: LC50 (the source's name)): > 33000 nM | TGI (CAMA1; CAMA1, total growth inhibition): 239.9 nM | IC50 (CAMA1; Homo sapiens, CAMA-1, 72 h, CAMA1, three-day drug treatment, read-out: gIC50): 89.1 nM | CC50 (CAMA1; Homo sapiens, CAMA-1, CAMA1, 50% net loss of cells vs time 0, read-out: LC50 (the source's name)): 537 nM | TGI (HCC1395; HCC1395, total growth inhibition): 358.6 nM | IC50 (HCC1395; Homo sapiens, 72 h, HCC1395, three-day drug treatment, read-out: gIC50): 50.3 nM | CC50 (HCC1395; Homo sapiens, HCC1395, 50% net loss of cells vs time 0, read-out: LC50 (the source's name)): 26700 nM | TGI (HCC1937; HCC1937, total growth inhibition): 321.7 nM | IC50 (HCC1937; Homo sapiens, 72 h, HCC1937, three-day drug treatment, read-out: gIC50): 25.4 nM | CC50 (HCC1937; Homo sapiens, HCC1937, 50% net loss of cells vs time 0, read-out: LC50 (the source's name)): ≥ 33000 nM | TGI (HCC3153; HCC3153, total growth inhibition): 281.8 nM | IC50 (HCC3153; Homo sapiens, 72 h, HCC3153, three-day drug treatment, read-out: gIC50): 38.9 nM | CC50 (HCC3153; Homo sapiens, HCC3153, 50% net loss of cells vs time 0, read-out: LC50 (the source's name)): ≥ 35500 nM | TGI (HCC70; HCC70, total growth inhibition): 26.8 nM | IC50 (HCC70; Homo sapiens, 72 h, HCC70, three-day drug treatment, read-out: gIC50): 4.9 nM | CC50 (HCC70; Homo sapiens, HCC70, 50% net loss of cells vs time 0, read-out: LC50 (the source's name)): 118 nM | CC50 (Hs578T; Homo sapiens, Hs-578T, 50% net loss of cells vs time 0, read-out: LC50 (the source's name)): > 33000 nM | IC50 (Hs578T; Homo sapiens, Hs-578T, 72 h, three-day drug treatment, read-out: gIC50): 67.4 nM | TGI (Hs578T; total growth inhibition): 4556.2 nM | IC50 (MCF10A; Homo sapiens, MCF-10A, 72 h, three-day drug treatment, read-out: gIC50): 7.2 nM | TGI (MCF10A; total growth inhibition): 467.7 nM | IC50 (MCF10F; Homo sapiens, MCF-10F, 72 h, three-day drug treatment, read-out: gIC50): 2.4 nM | TGI (MCF10F; total growth inhibition): 14.3 nM | IC50 (MDAMB231; Homo sapiens, MDA-MB-231, 72 h, MDAMB231, three-day drug treatment, read-out: gIC50): 110 nM | CC50 (MDAMB231; Homo sapiens, MDA-MB-231, MDAMB231, 50% net loss of cells vs time 0, read-out: LC50 (the source's name)): > 33000 nM | TGI (MDAMB231; MDAMB231, total growth inhibition): >33000.0 nM | IC50 (MDAMB361; Homo sapiens, MDA-MB-361, 72 h, MDAMB361, three-day drug treatment, read-out: gIC50): 1.7 nM | CC50 (MDAMB361; Homo sapiens, MDA-MB-361, MDAMB361, 50% net loss of cells vs time 0, read-out: LC50 (the source's name)): 26.9 nM | TGI (MDAMB361; MDAMB361, total growth inhibition): 4.9 nM | CC50 (MDAMB436L; [1]): > 33000 nM | IC50 (MDAMB436L; [2]): 13.2 nM | TGI (MDAMB436L; total growth inhibition): >33000.0 nM | IC50 (SUM1315MO2; Homo sapiens, 72 h, SUM1315MO2, three-day drug treatment, read-out: gIC50): 10 nM | CC50 (SUM1315MO2; Homo sapiens, SUM1315MO2, 50% net loss of cells vs time 0, read-out: LC50 (the source's name)): 8880 nM | TGI (SUM1315MO2; SUM1315MO2, total growth inhibition): 158.3 nM | CC50 (SUM149PT; [1]): 2600 nM | IC50 (SUM149PT; [2]): 20.6 nM | TGI (SUM149PT; total growth inhibition): 862.2 nM | CC50 (SUM159PT; Homo sapiens, SUM-159-PT, 50% net loss of cells vs time 0, read-out: LC50 (the source's name)): > 33000 nM | IC50 (SUM159PT; Homo sapiens, SUM-159-PT, 72 h, three-day drug treatment, read-out: gIC50): 10.4 nM | TGI (SUM159PT; total growth inhibition): 940.6 nM | CC50 (SUM225CWN; [1]): 436 nM | IC50 (SUM225CWN; [2]): 1.6 nM | TGI (SUM225CWN; total growth inhibition): 14.8 nM | CC50 (SUM229PE; [1]): 126 nM | IC50 (SUM229PE; [2]): 2.5 nM | TGI (SUM229PE; total growth inhibition): 17.4 nM | CC50 (T47D; [1]): 1000 nM | IC50 (T47D; [2]): 3.7 nM | TGI (T47D; total growth inhibition): 19.1 nM
